Here are results for 17 compounds from US6048865A, “N^6 -substituted-adenosine-5'-uronamides as adenosine receptor modulator” (priority 1998, dated 2000).

Molecules are shown by their SMILES. Read-outs that look alike come from different tables or passages of the source.

The target of assay [1] is T1, rat brain A2A adenosine receptor (Rattus norvegicus, UniProt P30543).
T1 construct: A2A receptors for rat striatal membranes; from tissue; host or cells: rat striatal membranes
The assay is described as follows: Displacement of specific [3H]CGS 21680 binding in rat striatal membranes.
Protocol: For binding experients, membrane homogenates were frozen and stored at -20° C. for greater than 2 months. Adenosine deaminase (ADA) was purchased from Boehringer Mannheim (Indianapolis, Ind.).
(§1) Nonspecific binding was determined in the presence of 200 μM NECA. […] Additional deaminase was not added during incubation with the radioligand.

The target of assay [2] is T2, rat A3 adenosine receptor (Rattus norvegicus, UniProt P28647).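 Note: radioligand binding on membrane homogenates, 1 h incubation at 37 °C in duplicate, gamma counting of filter-bound radioactivity, nonspecific binding defined using 200 µM NECA.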
T2 sequence (P28647 1-320): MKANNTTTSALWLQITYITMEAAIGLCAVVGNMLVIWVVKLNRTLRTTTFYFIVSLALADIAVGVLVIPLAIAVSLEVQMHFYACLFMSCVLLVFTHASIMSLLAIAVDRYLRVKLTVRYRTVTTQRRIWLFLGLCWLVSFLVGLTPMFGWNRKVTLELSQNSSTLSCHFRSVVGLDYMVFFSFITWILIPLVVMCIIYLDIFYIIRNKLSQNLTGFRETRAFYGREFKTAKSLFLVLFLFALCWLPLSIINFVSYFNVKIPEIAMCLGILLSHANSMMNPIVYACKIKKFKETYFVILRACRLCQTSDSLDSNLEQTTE
The following applies: for A1/A3: ratio of Ki (A1) to Ki (A3); for A1/A3 / A2A/A3: rat; for A2A/A3: ratio of Ki (A2A) to Ki (A3); for affinity and selectivity at A3 adenosine receptors: vs. A1 and A2 receptors.
Protocol: (§2) Procedures for preparing rat brain membranes and Chinese hamster ovary (CHO) cell membranes were as reported^30, 38, 44. For binding experients, membrane homogenates were frozen and stored at -20° C. for greater than 2 months. Adenosine deaminase (ADA) was purchased from Boehringer Mannheim (Indianapolis, Ind.).
(§3) Inhibitors were routinely dissolved in DMSO. […] Incubations were carried out in duplicate for 1 h at 37° C., and were terminated by rapid filtration over Whatman GF/B filters using a Brandell cell harvester (Brandell, Gaithersburg, Md.). Tubes were washed three times with 3 mL of buffer. Radioactivity was determined in a Beckman gamma 5500B γ-counter.
as §1

Assay [3] addresses T2, rat A3 adenosine receptor.
Protocol: as §2, §3, §1
In assay [4] the target is T3, rat brain A1 adenosine receptor (Rattus norvegicus, UniProt P25099).
T3 sequence (P25099 1-326): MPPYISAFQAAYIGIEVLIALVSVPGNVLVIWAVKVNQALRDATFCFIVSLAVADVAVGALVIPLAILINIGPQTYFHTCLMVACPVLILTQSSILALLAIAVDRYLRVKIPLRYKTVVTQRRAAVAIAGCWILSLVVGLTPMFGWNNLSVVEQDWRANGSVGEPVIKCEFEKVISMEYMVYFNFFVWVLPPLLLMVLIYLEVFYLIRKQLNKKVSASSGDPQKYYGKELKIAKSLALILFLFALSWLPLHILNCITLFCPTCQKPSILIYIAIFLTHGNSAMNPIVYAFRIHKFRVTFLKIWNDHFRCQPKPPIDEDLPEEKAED
Protocol: (§4) Procedures for preparing rat brain membranes and Chinese hamster ovary (CHO) cell membranes were as reported^30, 38, 44. For binding experients, membrane homogenates were frozen and stored at -20° C. for greater than 2 months.
as §1

The subject of the next assay is A3 receptor. To be noted: background, cited from earlier work.
The target of another assay is T4, rat A3 receptor (Rattus norvegicus, UniProt P28647).
T4 sequence (P28647 1-320): T2 sequence (P28647 1-320)
Briefly: Binding of [35S]GTP-γ-S to rat RBL-2H3 mast cell membranes. The following applies: FIG. 1, rat RBL-2H3 mast cell membranes. It counts as biochemical. Here is the method: The binding for [^35 S]GTP-y-S (Ameersham, Chicago Ill., specific activity 1275 Ci/mmol) was carried out using rat RBL-2H3 mast cell membranes by the general method of Lorenzen et al.^47 Membranes were suspended in a buffer containing 50 mM Tris, 3 units/mL adenosine deaminase, 100 mM NaCl, and 10 mM MgCl2 (pH 7.4) and a protein concentration of 1 to 10 μg per tube. The membrane suspension was preincubated with […], R-PIA and/or riboflavin in a final volume of 125 μL buffer at 30° C. for 60 min and then transferred to ice for 20 min. [^35 S]GTP-γy-S was added to a final concentration of 0.1 nM in a total volume of 500 μL and the mixture was incubated for 30 min at 30° C. Non-specific binding was determined in the presence of 10 μM GTP-γ-S (Sigma, St. Louis Mo.). Incubation of the reaction mixture was terminated by filtration over a GF/B glass filter using a Brandell cell harvester and washed with the same buffer.
The assay involved the agonist-induced inhibition of binding of guanine nucleotide to rat RBL-2H3 mast cell membranes, which contain a high density of A3 receptors.
In general terms: GTPγS resists hydrolysis and so accumulates on activated G proteins.

In assay [5] the target is T3, rat brain A1 adenosine receptor. The assay is described as follows: Displacement of specific [3H]R-PIA binding in rat brain (cortical) membranes. The following applies: read-out: Ki (A1).
Protocol: as §4, §1
Assay [6] shares this target. The assay is described as follows: biochemical.
Protocol: as §4, §1
Where [7] appears, read: rat striatal membranes, [3H]CGS 21680, Ki ± SEM, n = 3-6.

T1 sequence (P30543 whole entry): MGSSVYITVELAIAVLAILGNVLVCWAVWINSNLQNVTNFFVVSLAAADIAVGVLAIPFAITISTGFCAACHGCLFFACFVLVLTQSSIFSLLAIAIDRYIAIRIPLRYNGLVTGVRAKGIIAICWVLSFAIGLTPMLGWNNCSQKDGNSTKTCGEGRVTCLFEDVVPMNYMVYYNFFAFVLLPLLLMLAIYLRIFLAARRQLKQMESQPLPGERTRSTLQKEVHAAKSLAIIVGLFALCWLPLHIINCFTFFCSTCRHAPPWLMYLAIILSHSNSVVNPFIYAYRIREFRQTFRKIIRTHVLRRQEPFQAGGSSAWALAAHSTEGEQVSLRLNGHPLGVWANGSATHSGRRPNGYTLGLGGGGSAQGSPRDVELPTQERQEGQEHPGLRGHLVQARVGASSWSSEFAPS

As usually defined, the Ki is the dissociation constant of the complex between target and ligand, obtained from inhibition or displacement. Consider `CCNC(=O)[C@H]1O[C@@H](n2cnc3c(NC(=O)NCc4ccccc4)ncnc32)[C@H](O)[C@@H]1O` [Compound 3f, N^6-(benzylcarbamoylamino)-adenosine-5'-N-ethyluronamide], for which the Ki was found to be 1790 ± 230 nM in assay [1] (setting [7]), 38.3 ± 6.4 nM in assay [3] and 171 ± 15 nM in assay [4]. Moreover, the A1/A3 in assay [2] was determined as 4.46. Besides, the A2A/A3 in assay [2] came to 46.8.

As to `CCNC(=O)[C@H]1O[C@@H](n2cnc3c(NC(=O)c4ccc(OC)cc4)ncnc32)[C@H](O)[C@@H]1O` [Compound 3c], the Ki amounted to 237 ± 46 nM in assay [1] (setting [7]), 837 ± 142 nM in assay [3] and 86.4 ± 14.2 nM in assay [4]. The A1/A3 in assay [2] is on record as 0.10. Further, the A2A/A3 in assay [2] was found to be 0.28.

In the case of `CCNC(=O)[C@H]1O[C@@H](n2cnc3c(NC(=O)N[C@H](C)c4ccccc4)ncnc32)[C@H](O)[C@@H]1O` [Compound 3i, N^6-((R)-α-phenylethylcarbamoyl)-adenosine-5'-N-ethyluronamide], the Ki in assay [1] (setting [7]) amounted to 279 ± 171 nM; in assay [3] it was 16.3 ± 3.7 nM; in assay [4], 433 ± 171 nM. The A1/A3 in assay [2] came out at 26.5. Besides, the A2A/A3 in assay [2] turned out to be 17.1.

With `CNC(=O)[C@H]1O[C@@H](n2cnc3c(NCc4cccc(I)c4)ncnc32)[C@H](O)[C@@H]1O` [IB-MECA, N^6-(3-iodobenzyl)adenosine-5'-N-methyluronamide], in the assay on A3 receptor, the behavioral effect result was “induces behavioral depression”. Besides, the “protection against cerebral ischemia” value with A3 receptor (chronic administration) is recorded as “protects against cerebral ischemia”.

`CCNC(=O)[C@H]1O[C@@H](n2cnc3c(NC(=O)Nc4ccc(C(C)=O)cc4)ncnc32)[C@H](O)[C@@H]1O` [Compound 3h, N^6-(4-acetyl-phenylcarbamoyl)-adenosine-5'-N-ethyluronamide]: the Ki in assay [1] (setting [7]) is 1050 ± 270 nM; in assay [2], 9.7 to 107 nM; in assay [3], 20.9 ± 7.51 nM; in assay [4], 72.7 ± 11.8 nM. Also, in assay [2], the A1/A3 is on record as 3.47. Also, in assay [2], the A2A/A3 is 50.2. The “affinity and selectivity at A3 adenosine receptors” value (“affinity and selectivity” below) in assay [2] was “relatively high affinity and selectivity at A3 adenosine receptors”.

With `CCNC(=O)[C@H]1O[C@@H](n2cnc3c(NC(=O)Nc4cc(C)on4)ncnc32)[C@H](O)[C@@H]1O` [Compound 3k, N^6-(5-methyl-isoxazol-3-yl-carbamoyl)-adenosine-5'-N-ethyluronamide], the Ki in assay [1] (setting [7]) is 884 ± 232 nM; in assay [3] it was 532 ± 240 nM; in assay [4] it was 146 ± 39 nM. Also, the A1/A3 in assay [2] was 0.27. Further, in assay [2], the A2A/A3 is 1.66.

With `CNC(=O)[C@H]1O[C@@H](n2cnc3c(NCc4ccc(N)c(I)c4)ncnc32)[C@H](O)[C@@H]1O` [I-AB-MECA, N^6-(4-amino-3-iodobenzyl)adenosine-5'-N-methyluronamide, reference compound], at rat A3 receptor, the “effect on binding of [35S]GTP-γ-S” value is “increased binding of [^35 S]GTP-γ-S in a dose dependent manner”.

Take `CCNC(=O)[C@H]1O[C@@H](n2cnc3c(N(C(=O)Nc4ccc(Cl)cn4)C(=O)Nc4ccc(Cl)cn4)ncnc32)[C@H](O)[C@@H]1O` [Compound 3o, N^6-bis-(5-chloro-pyridin-2-yl-carbamoyl)-adenosine-5'-N-ethyluronamide]: the results for the inhibition constant (Ki) in assay [1] (setting [7]), in assay [3] and in assay [4] were 799 ± 191 nM, 5700 ± 100 nM and 761 ± 187 nM, respectively. For the same compound, in assay [2], the A1/A3 came to 0.13. In addition, in assay [2], the A2A/A3 is given as 0.14.

For `CCNC(=O)[C@H]1O[C@@H](n2cnc3c(NNC(=O)c4ccc(Cl)cc4)ncnc32)[C@H](O)[C@@H]1O` [Compound 3d, N^6-(4-chlorophenyl-carbonylamino)-adenosine-5'-N-ethyluronamide], the figures for the inhibition constant (Ki) in assay [1], in assay [5] and in assay [2] (read-out: Ki (A3)) were 1960 ± 300 nM, 1170 ± 220 nM and 754 ± 132 nM, respectively. Besides, in assay [2], the A1/A3 amounted to 1.55. For the same compound, the A2A/A3 in assay [2] is on record as 2.59.

`CCNC(=O)[C@H]1O[C@@H](n2cnc3c(NC(=O)N[C@@H](C)c4ccccc4)ncnc32)[C@H](O)[C@@H]1O` [Compound 3j, N^6-((S)-α-phenylethylcarbamoyl)-adenosine-5'-N-ethyluronamide] showed an inhibition constant (Ki) in assay [1] (setting [7]) of 2970 ± 930 nM. Moreover, in assay [2], the A1/A3 came to 1.68; the A2A/A3 stood at 9.3; the “affinity and selectivity” value is “relatively high affinity and selectivity at A3 adenosine receptors”. Further, affinity in assay [3] was put at a Ki of 319 ± 134 nM. This compound came in with a Ki in assay [4] of 537 ± 33 nM.

On to `CCNC(=O)[C@H]1O[C@@H](n2cnc3c(N(C(=O)Nc4ccc([N+](=O)[O-])cc4)C(=O)Nc4ccc([N+](=O)[O-])cc4)ncnc32)[C@H](O)[C@@H]1O` [Compound 3n, N^6-bis-(4-nitrophenylcarbamoyl)-adenosine-5'-N-ethyluronamide], for which the Ki in assay [1] (setting [7]) stood at 2530 ± 200 nM; in assay [5], 89.1 ± 8.8 nM.

`CCNC(=O)[C@H]1O[C@@H](n2cnc3c(NC(=O)Cc4ccc(Cl)cc4Cl)ncnc32)[C@H](O)[C@@H]1O` [Compound 3b, N^6-(2,4-dichlorobenzyl-carbonylamino)-adenosine-5'-N-ethyluronamide]: the Ki worked out at 26.6 ± 8.8 nM in assay [1], 167 ± 7 nM in assay [3] and 16 ± 3.3 nM in assay [4]. Moreover, in assay [2], the A1/A3 was 0.095. Besides, in assay [2], the A2A/A3 turned out to be 0.16.

For `CCNC(=O)[C@H]1O[C@@H](n2cnc3c(NC(=O)Nc4nncs4)ncnc32)[C@H](O)[C@@H]1O` [Compound 3l, N^6-(1,3,4-thiadiazol-2-yl-carbamoyl)-adenosine-5'-N-ethyluronamide], the Ki in assay [1] (setting [7]) was found to be 917 ± 254 nM; in assay [3], 5550 ± 2800 nM; in assay [4] it was 208 ± 42 nM. Besides, the A1/A3 in assay [2] was determined as 0.037. Further, in assay [2], the A2A/A3 stood at 0.16.

For `CCNC(=O)[C@H]1O[C@@H](n2cnc3c(NC(=O)c4ccc(-c5ccccc5)cc4)ncnc32)[C@H](O)[C@@H]1O` [Compound 3a], the Ki in assay [1] (setting [7]) is 3580 ± 850 nM; in assay [3], 979 ± 22 nM; in assay [4] it was 5.92 ± 1.04 nM. Further, in assay [2], the A1/A3 amounted to 0.006. In addition, the A2A/A3 in assay [2] was 3.65.

In the case of `CCNC(=O)[C@H]1O[C@@H](n2cnc3c(NC(=O)c4ccccc4)ncnc32)[C@H](O)[C@@H]1O` [Compound 3e], the Ki in assay [1] (setting [7]) was 670 ± 211 nM; in assay [3] it was 824 ± 126 nM; in assay [4], 252 ± 52 nM. The A1/A3 in assay [2] was determined as 0.30. In assay [2], the A2A/A3 turned out to be 0.81.

In assay [6], `CCCOc1ccc(NC(=O)Nc2ncnc3c2ncn3[C@@H]2O[C@H](C(=O)NCC)[C@@H](O)[C@H]2O)cc1` [Compound 3m, N^6-(4-n-propoxy-phenylcarbamoyl)-adenosine-5'-N-ethyluronamide] yielded a Ki of 257 ± 43 nM. Also, in assay [2], the inhibition constant Ki was 9.7 to 107 nM; the A1/A3 came out at 2.3; the A2A/A3 amounted to 2.4; the “affinity and selectivity” value was “relatively high affinity and selectivity at A3 adenosine receptors”. The same compound came in with a Ki in assay [3] of 107 ± 34 nM.

Regarding `CNC(=O)[C@H]1O[C@@H](n2cnc3c(NCc4cccc(I)c4)nc(Cl)nc32)[C@H](O)[C@@H]1O` [Cl-IB-MECA, 2-chloro-N^6-(3-iodobenzyl)adenosine-5'-N-methyluronamide, reference compound], the “effect on binding of [35S]GTP-γ-S” value on rat A3 receptor is “increased binding of [^35 S]GTP-γ-S in a dose dependent manner”.
